Columns and labels:
Water solubility = format: physicochemical; settings: dihydrochloride
Source text: Using a solution of HCl-gas in ethanol the compound can be converted to dihydrochloride, which is 4% water soluble.

[1] = system: peripheral leukocytes and lymphocytes; settings: conventional cytostatics and immunosuppressive agents; cited from earlier work
Electro-convulsion = test: Maximal electroconvulsion test; format: in vivo; settings: Mus musculus, po; i.g., mice

SMILES	reattainment of normal hematological findings after discontinuation [1]	other results
Cl.Cl.Nc1ccc(C(=O)Nc2ccccc2N)cc1 [dihydrochloride, 4-Amino-N-(2'aminophenyl)-benzamide-dihydrochloride]	–	solubility (Water solubility): 40 mg/mL
CN(Cc1cnc2nc(N)nc(N)c2n1)c1ccc(C(=O)N[C@@H](CCC(=O)O)C(=O)O)cc1 [methotrexate]	No comparable short-term extensive reattainment of normal hematological findings	–
O=P1(N(CCCl)CCCl)NCCCO1 (centres unmarked) [cyclophosphamide]	No comparable short-term extensive reattainment of normal hematological findings	–
Cn1cnc([N+](=O)[O-])c1Sc1ncnc2nc[nH]c12 [Azathioprine]	No comparable short-term extensive reattainment of normal hematological findings	–
O=C1NC(=O)C(c2ccccc2)(c2ccccc2)N1 [Diphenylhydantoin, reference compound]	–	ED50 (Electro-convulsion): 22.5 mg/kg

Source: patent US4933368A, “N-phenylbenzamide derivatives” (Godecke Aktiengesellschaft, priority 1983, dated 1990)
